Reference: US20110294778A1, “HEPATITIS C INHIBITOR COMPOUNDS” (priority 2009, published 2011)

What was measured:
[1] = tested on: HCV genotype 1a (strain H77) subgenomic replicon with NS3 resistance mutation R155K in Huh-7 cells; test: HCV replicon RNA replication assay (NS3 protease variants), genotype 1a R155K; assay type: cell-based; conditions: Hepatitis C virus, Huh-7, 72 h, read-out: R155K 1a EC50 (nM)
[2] = tested on: HCV genotype 1b (Con-1) subgenomic replicon with NS3 resistance mutation D168V in Huh-7 cells; test: HCV replicon RNA replication assay (NS3 protease variants), genotype 1b D168V; assay type: cell-based; conditions: Hepatitis C virus, Huh-7, 72 h, read-out: D168V 1b EC50 (nM)

SMILES | EC50 [1] | EC50 [2]
COc1ccc2c(O[C@@H]3C[C@H]4C(=O)N[C@]5(C(=O)NS(=O)(=O)C6CC6)C[C@H]5/C=C\CCCCC[C@H](NC(=O)c5ccn(CCF)n5)C(=O)N4C3)cc(OC(C)C)nc2c1C [Compound 1031, (2R,6S,12Z,13aS,14aR,16aS)-N-(cyclopropylsulfonyl)-6-({[1-(2-fluoroethyl)-1H-pyrazol-3-yl]carbonyl}amino)-2-{[7-methoxy-8-methyl-2-(propan-2-yloxy)quinolin-4-yl]oxy}-5,16-dioxo-1,2,3,6,7,8,9,10,11,13a,14,15,16,16a-tetradecahydrocyclopropa[e]pyrrolo[1,2-a][1,4]diazacyclopentadecine-14a(5H)-carboxamide] | 4.2 nM | 0.39 nM
CCOc1cc(O[C@@H]2C[C@H]3C(=O)N[C@]4(C(=O)NS(=O)(=O)C5(C)CC5)C[C@H]4/C=C\CCCCC[C@H](NC(=O)c4ccn(C)n4)C(=O)N3C2)c2ccc(OC)c(C)c2n1 [Compound 1030, (2R,6S,12Z,13aS,14aR,16aS)-2-[(2-ethoxy-7-methoxy-8-methylquinolin-4-yl)oxy]-N-[(1-methylcyclopropyl)sulfonyl]-6-{[(1-methyl-1H-pyrazol-3-yl)carbonyl]amino}-5,16-dioxo-1,2,3,6,7,8,9,10,11,13a,14,15,16,16a-tetradecahydrocyclopropa[e]pyrrolo[1,2-a][1,4]diazacyclopentadecine-14a(5H)-carboxamide] | 6.3 nM | 0.38 nM
COc1ccc2c(O[C@@H]3C[C@H]4C(=O)N[C@]5(C(=O)NS(=O)(=O)C6(C)CC6)C[C@H]5/C=C\CCCCC[C@H](NC(=O)c5cc[nH]n5)C(=O)N4C3)cc(OC(C)C)nc2c1C [Compound 1009, (2R,6S,12Z,13aS,14aR,16aS)-2-{[7-methoxy-8-methyl-2-(propan-2-yloxy)quinolin-4-yl]oxy}-N-[(1-methylcyclopropyl)sulfonyl]-5,16-dioxo-6-[(1H-pyrazol-3-ylcarbonyl)amino]-1,2,3,6,7,8,9,10,11,13a,14,15,16,16a-tetradecahydrocyclopropa[e]pyrrolo[1,2-a][1,4]diazacyclopentadecine-14a(5H)-carboxamide] | 1.9 nM | 0.49 nM
COc1ccc2c(O[C@@H]3C[C@H]4C(=O)N[C@]5(C(=O)NS(=O)(=O)C6(C)CC6)C[C@H]5/C=C\CCCCC[C@H](NC(=O)N5CC(C)(OC)C5)C(=O)N4C3)cc(OC(C)C)nc2c1C [Compound 2009, (2R,6S,12Z,13aS,14aR,16aS)-6-{[(3-methoxy-3-methylazetidin-1-yl)carbonyl]amino}-2-{[7-methoxy-8-methyl-2-(propan-2-yloxy)quinolin-4-yl]oxy}-N-[(1-methylcyclopropyl)sulfonyl]-5,16-dioxo-1,2,3,6,7,8,9,10,11,13a,14,15,16,16a-tetradecahydrocyclopropa[e]pyrrolo[1,2-a][1,4]diazacyclopentadecine-14a(5H)-carboxamide] | 6.8 nM | 2.9 nM
COc1ccc2c(O[C@@H]3C[C@H]4C(=O)N[C@]5(C(=O)NS(=O)(=O)C6CC6)C[C@H]5/C=C\CCCCC[C@H](NC(=O)c5ccc(C)s5)C(=O)N4C3)cc(OCC(F)(F)F)nc2c1C [Compound 1035, (2R,6S,12Z,13aS,14aR,16aS)-N-(cyclopropylsulfonyl)-2-{[7-methoxy-8-methyl-2-(2,2,2-trifluoroethoxy)quinolin-4-yl)oxy}-6-{[(5-methylthiophen-2-yl)carbonyl]amino}-5,16-dioxo-1,2,3,6,7,8,9,10,11,13a,14,15,16,16a-tetradecahydrocyclopropa[e]pyrrolo[1,2-a][1,4]diazacyclopentadecine-14a(5H)-carboxamide] | 8.2 nM | 0.77 nM
COc1c(F)ccc2c(O[C@@H]3C[C@H]4C(=O)N[C@]5(C(=O)NS(=O)(=O)C6(C)CC6)C[C@H]5/C=C\CCCCC[C@H](NC(=O)N(C)C)C(=O)N4C3)cc(OC(C)C)nc12 [Compound 2002, (2R,6S,12Z,13aS,14aR,16aS)-6-[(dimethylcarbamoyl)amino]-2-{[7-fluoro-8-methoxy-2-(propan-2-yloxy)quinolin-4-yl]oxy}-N-[(1-methylcyclopropyl)sulfonyl]-5,16-dioxo-1,2,3,6,7,8,9,10,11,13a,14,15,16,16a-tetradecahydrocyclopropa[e]pyrrolo[1,2-a][1,4]diazacyclopentadecine-14a(5H)-carboxamide] | 4.7 nM | 0.41 nM
CCOc1cc(O[C@@H]2C[C@H]3C(=O)N[C@]4(C(=O)NS(=O)(=O)C5(C)CC5)C[C@H]4/C=C\CCCCC[C@H](NC(=O)N4CCC4)C(=O)N3C2)c2ccc(OC)c(C)c2n1 [Compound 2015, (2R,6S,12Z,13aS,14aR,16aS)-6-[(azetidin-1-ylcarbonyl)amino]-2-[(2-ethoxy-7-methoxy-8-methylquinolin-4-yl)oxy]-N-[(1-methylcyclopropyl)sulfonyl]-5,16-dioxo-1,2,3,6,7,8,9,10,11,13a,14,15,16,16a-tetradecahydrocyclopropa[e]pyrrolo[1,2-a][1,4]diazacyclopentadecine-14a(5H)-carboxamide] | 5.4 nM | 0.67 nM
COc1ccc2c(O[C@@H]3C[C@H]4C(=O)N[C@]5(C(=O)NS(=O)(=O)C6(C)CC6)C[C@H]5/C=C\CCCCC[C@H](NC(=O)N5CC(C)(O)C5)C(=O)N4C3)cc(OC(C)C)nc2c1C [Compound 2013, (2R,6S,12Z,13aS,14aR,16aS)-6-{[(3-hydroxy-3-methylazetidin-1-yl)carbonyl]amino}-2-{[7-methoxy-8-methyl-2-(propan-2-yloxy)quinolin-4-yl]oxy}-N-[(1-methylcyclopropyl)sulfonyl]-5,16-dioxo-1,2,3,6,7,8,9,10,11,13a,14,15,16,16a-tetradecahydrocyclopropa[e]pyrrolo[1,2-a][1,4]diazacyclopentadecine-14a(5H)-carboxamide] | 6.5 nM | 3.3 nM
COc1ccc2c(O[C@@H]3C[C@H]4C(=O)N[C@]5(C(=O)NS(=O)(=O)C6(C)CC6)C[C@H]5/C=C\CCCCC[C@H](NC(=O)N5CCC5)C(=O)N4C3)cc(OC(C)C)nc2c1C [Compound 2001, (2R,6S,12Z,13aS,14aR,16aS)-6-[(azetidin-1-ylcarbonyl)amino]-2-{[7-methoxy-8-methyl-2-(propan-2-yloxy)quinolin-4-yl]oxy}-N-[(1-methylcyclopropyl)sulfonyl]-5,16-dioxo-1,2,3,6,7,8,9,10,11,13a,14,15,16,16a-tetradecahydrocyclopropa[e]pyrrolo[1,2-a][1,4]diazacyclopentadecine-14a(5H)-carboxamide] | 2.3 nM | 0.48 nM
COc1ccc2c(O[C@@H]3C[C@H]4C(=O)N[C@]5(C(=O)NS(=O)(=O)C6(C)CC6)C[C@H]5/C=C\CCCCC[C@H](NC(=O)N(C)C)C(=O)N4C3)cc(OC3CC3)nc2c1C [Compound 2012, (2R,6S,12Z,13aS,14aR,16aS)-2-{[2-(cyclopropyloxy)-7-methoxy-8-methylquinolin-4-yl]oxy}-6-[(dimethylcarbamoyl)amino]-N-[(1-methylcyclopropyl)sulfonyl]-5,16-dioxo-1,2,3,6,7,8,9,10,11,13a,14,15,16,16a-tetradecahydrocyclopropa[e]pyrrolo[1,2-a][1,4]diazacyclopentadecine-14a(5H)-carboxamide] | 9.9 nM | 1.8 nM
